Assays:
B-16 melanoma cells = test: Melanogenesis inhibition in B-16 melanoma cell culture; format: cell-based; details: for Amount of melanin produced: absorbance at 400 nm per 10^6 cells, incubation 3 days
Description: The compounds shown in Table 1 were set to have final concentrations of 2 ppm and 20 ppm, and each of the compounds was added to a culture medium of B-16 melanoma cells, followed by incubation for 3 days. Thereafter, the cells were treated with trypsin, detached from the incubator, and centrifuged, and then melanin was extracted therefrom. The melanin was dissolved by addition of 1 mL of a sodium hydroxide solution (1 N) and boiling for 10 min, and then the absorbance was measured at 400 nm using a spectrometer, thereby determining the amount of melanin produced. The amount of melanin was measured as an absorbance per unit cell count (10^6 cells), and the amount of melanin production relative to the control with nothing added was calculated as an inhibition (%). The test was repeated three times.
To compare melanogenesis inhibiting activity of the compounds according to the present disclosure, 20 ppm arbutin was also tested by the same method, and the results are also shown in Table 3.

[1] = tested on: human-derived fibroblasts; test: Increase in collagen synthesis, PICP EIA kit, human fibroblast culture; format: cell-based; details: final concentration 20 ppm, incubation one day; for Amount of collagen production: amount of collagen production as absorbance at 450 nm; for Collagen increase (%): ratio of collagen production relative to control
Description: Out of the compounds represented by Formula 2, the compounds according to the present disclosure shown in Table 1 were tested for collagen synthesis stimulating activity by addition to cultures of human-derived fibroblasts.
The measurement of synthesized collagen was conducted by quantification using a procollagen type I C-peptide enzyme immunoassay kit (PICP EIA kit).
Collagen synthetic ability was evaluated by selecting the concentrations causing no toxicity on the basis of cytotoxicity results.
In the test, the final concentration of the compounds of the present disclosure was set to 20 ppm. Each sample was added to the culture medium of human fibroblasts, followed by incubation for one day, and then the culture was taken out, and the degree of collagen synthesis was measured at each concentration through the PICP EIA kit by using a spectrometer at 450 nm. For comparison of effects, the degree of collagen synthesis was measured by the same method on a culture medium of fibroblasts with nothing added (control) and a sample with vitamin C added to a final concentration of 20 ppm. The amount of collagen production was measured as a UV absorbance, and the rate of increase in collagen production was calculated as a ratio of collagen production relative to the collagen production of the control.

[2] = melanin production relative to control with nothing added, final concentration 2 ppm, 3 days
[3] = melanin production relative to control with nothing added, final concentration 20 ppm, 3 days

Structure (SMILES) | inhibition at 20 ppm (B-16 melanoma cells; Mus musculus, B16, 72 h, melanin production relative to control with nothing added, final concentration 20 ppm, 3 days) [%] | Amount of melanin produced (B-16 melanoma cells; final concentration 20 ppm) | Amount of melanin produced (B-16 melanoma cells; final concentration 2 ppm) | Inhibition (%) (B-16 melanoma cells; [2]) | Inhibition (%) (B-16 melanoma cells; [3]) | Amount of collagen production [1] | Collagen increase (%) [1] [%]
OC[C@H]1O[C@@H](Oc2ccc(O)cc2)[C@H](O)[C@@H](O)[C@@H]1O [Arbutin, arbutin, reference compound] | 6.5 | 0.056 ± 0.001 | – | – | – | – | –
C=C(C)c1cc(O)cc(=O)o1 [Compound 1] | – | 0.046 ± 0.001 | 0.047 ± 0.001 | 21.8 | 23.5 | 287.65 | 152.2
C/C=C(\C)c1oc(=O)c(C)c(O)c1C [Compound 2] | – | 0.046 ± 0.001 | 0.048 ± 0.001 | 20.0 | 23.5 | 287.24 | 147.2
CC/C=C(\C)c1oc(=O)c(CC)c(O)c1CC [Compound 3] | – | 0.047 ± 0.001 | 0.048 ± 0.001 | 20.0 | 21.8 | 287.24 | 147.2
C=C(C)c1oc(=O)cc(O)c1C(=O)O [Compound 4] | – | 0.046 ± 0.001 | 0.048 ± 0.001 | 20.0 | 23.5 | 287.61 | 152.1
C/C=C(\C)c1oc(=O)c(C)cc1C [Compound 5] | – | 0.047 ± 0.001 | 0.049 ± 0.001 | 18.3 | 21.8 | 287.65 | 152.2
C/C(=C\CO)c1cc(O)cc(=O)o1 [Compound 6] | – | 0.046 ± 0.001 | 0.048 ± 0.001 | 18.3 | 23.5 | 287.61 | 152.1
CCc1c(C)c(C(=O)O)c(/C(C)=C/CO)oc1=O [Compound 9] | – | 0.047 ± 0.001 | 0.049 ± 0.001 | 18.3 | 21.8 | 287.61 | 152.1
CC/C=C(\C)c1oc(=O)c(CC)c(C)c1CC [Compound 10] | – | 0.047 ± 0.001 | 0.049 ± 0.001 | 18.3 | 21.8 | 287.24 | 147.2
O=C1O[C@H]([C@@H](O)CO)C(O)=C1O [Vitamin C, vitamin C, reference compound] | – | – | – | – | – | 217.35 | 115.3

Reference: patent US11234919B2, “Compound produced by means of marine microorganism and composition for improving skin wrinkles, enhancing elasticity and skin whitening comprising same compound as active ingredient” (KOREA INSTITUTE OF OCEAN SCIENCE & TECHNOLOGY, priority 2017, dated 2022)
